# Literature values, collected in US20170281607A1, “PHARMACEUTICAL COMPOSITIONS AND METHODS FOR THE TREATMENT OF DIABETES” (University of Limerick, priority 2016, published 2017).
# Conditions: in vivo
structure (smiles),measurement,value
"COc1ccc2c(c1)[nH]c1c(C)nccc12 [harmine, 7-Methoxy-1-methyl-9H-pyrido[3,4-b]indole]",half-life,1 to 3 h
